Assay results taken from US9359592B2, “Method for differentiation into retinal cells from stem cells” (SNU R&DB Foundation, priority 2009, dated 2016).

Assays:
[1] = system: retinal progenitor cells differentiated from hESCs (differentiation into photoreceptor cells); test: Immunochemical staining: positive rates of retinal cell markers after differentiation with substitutes for Wnt3a and Shh; assay type: cell-based, human; details: mean, sample size = 3
Procedure: The eye field precursors (floating aggregates) were cultured in 8-well poly-D-lysine/laminin-coated slides (BD Biosciences, Bedford, Mass.) under the same conditions that were used for differentiation into the retinal progenitor cells, the neural retinal progenitor cells, the photoreceptor cell precursors and the photoreceptor cells.
After being blocked for 90 min, the slides in each differentiation step were incubated overnight at 4° C. with the following antibodies specific for cells of each differentiation step: rabbit-Blue-opsin (1:500, Chemicon), sheep-Chx10 (1:100, Chemicon), rabbit-Crx (1:200, Santa Cruz Biotechnology, Santa Cruz, Calif., USA), rabbit-GFAP (1:200, Invitrogen), mouse-human specific mitochondria (1:50, Chemicon), rabbit-human specific mitochondria (1:200, Chemicon), mouse-Islet1 (1:10, Developmental Studies Hydroma Bank, DSHB; Iowa City, Iowa, USA), mouse-Ki67 (1:100, Vector Laboratories, Peterborough, England), mouse-Mitf (1:1,000, abcam, Cambridge, Mass., USA), mouse-nestin (1:250, BD Sciences), rabbit-neurofilament-200 (1:1,000, Sigma-Aldrich), rabbit-Otx2 (1:100, abcam), rabbit-Pax2 (1:250, abcam), mouse-Pax6 (1:2, DSHB), mouse-peripherin2 (1:500, GenScript, Piscataway, N.J., USA), rabbit-Rax (1:250, abcam), rabbit-recoverin (1:1,000, Chemicon), retinal pigment epithelium 65 (RPE65, 1:100, Chemicon), rabbit-rhodopsin (1:500, Sigma-Aldrich), mouse-rhodopsin (1:500, Ret-P1, Lab Vision, Fremont, Calif., USA), mouse-rhodopsin (1:2,000, Ret-P1, Sigma-Aldrich), mouse-rom1 (1:50, ABR-Affinity Bioreagents, Golden, Colo., USA), rabbit-PDE6 beta (1:100, abcam), rabbit-phosducin (1:500, Santa Cruz Biotechnology), mouse-PKC-alpha (1:500, Sigma-Aldrich), mouse-Prox1 (1:2,000, Chemicon), mouse-Sox2 (1:250, R&D Systems), rabbit-synaptophysin (1:2,000, Santa Cruz Biotechnology), and rabbit-ZO-1 (1:100, Zymed-Invitrogen).
The cells cultured on the slides in each step were washed three times for 5 min with PBS and incubated at room temperature for 2 hrs with species-specific secondary antibody conjugated with Cy3 (1:800, Jackson Immunoresearch Laboratory) or Alexa488 (1:500, Invitrogen). A standard material suitable for the primary and the secondary antibody was used to examine non-specific staining or interaction between the antibodies. Afterwards, the cells were washed three times for 5 min with PBS, counterstained with DAPI (4′,6-diamidino-2 phenylindole) and mounted in Vectashield (Vector Laboratories), followed by visualization under an epifluorescence microscope (Nikon Eclipse, E800, Tokyo, Japan) and a confocal microscope (Leica, Leica Microsystems Inc, Bannockburn, Ill., USA or Zeiss LSM510, Carl Zeiss, Inc, Thornwood, N.Y., USA).
500 cells were counted from 20 microscopic fields randomly selected at 200 magnification and evaluated for positive responses to each antibody. Positive responses to antibodies were determined after at least three evaluations. […] All data were represented as mean standard error of the mean (S.E.M) with a statistical significance of p<0.05.

[2] = system: hESC-derived retinal progenitor cells / neural retinal progenitor cells; test: Immunochemical staining: marker positive rates during stepwise differentiation (Examples 4 to 6); assay type: cell-based, human; details: 50 ng/ml Wnt3a for 5 days (day 18); 12.8% before addition
Procedure: The retinal progenitor cells generated in Example 3 were cultured in a medium for inducing differentiation into neural retinal progenitor cells [DMEM/F12 (Invitrogen), 1 mM L-glutamine (Invitrogen), 0.1 mM nonessential amino acids (Invitrogen), 0.1 mM mercaptoethanol (Sigma-Aldrich), 1% B27 supplement (Invitrogen), 1% N2 supplement (Invitrogen), 10 ng/ml noggin, 10 ng/ml IGF-1, 5 ng/ml FGF2, 50 ng/ml recombinant Wnt3a (R&D Systems)] supplied thereto for 5 days, thus giving neural retinal progenitor cells (FIG. 1).
The neural retinal progenitor cells generated in Example 4 were induced to differentiate into photoreceptor cell precursors by supplying a medium [DMEM/F12 (Invitrogen), 1 mM L-glutamine (Invitrogen), 0.1 mM nonessential amino acids (Invitrogen), 0.1 mM mercaptoethanol (Sigma-Aldrich), 1% B27 supplement (Invitrogen), 1% N2 supplement (Invitrogen), 10 ng/ml IGF-1, 50 ng/ml Wnt3a, and 250 ng/ml recombinant Shh (Sonic Hedgehog amino terminal peptide, Shh, R&D Systems)] for 3 days. Noggin and FGF2, both used in the previous step, were excluded from the medium (FIG. 1).
The differentiation of the cells obtained in Examples 3 to 6 was examined using an immunochemical staining method as follows. […]

Molecule: O=C1Nc2cc(Br)ccc2/C1=C1/Nc2ccccc2/C1=N\O [BIO, 6-bromoindirubin-3′ oxime]
- Positive rate of Crx ([1]; Wnt3a substitute at 2 uM): 65.8%
- Positive rate of Ki67 ([1]; Wnt3a substitute at 2 uM): 17.2%
- Positive rate of Pax6 ([1]; Wnt3a substitute at 2 uM): 92.8%
- Positive rate of Rom ([1]; Wnt3a substitute at 2 uM): 60.3%
- Positive rate of b-opsin ([1]; Wnt3a substitute at 2 uM): 77.5%
- Positive rate of peripherin2 ([1]; Wnt3a substitute at 2 uM): 33.9%
- Positive rate of recoverin ([1]; Wnt3a substitute at 2 uM): 77.1%
- Positive rate of rhodopsin ([1]; Wnt3a substitute at 2 uM): 71.5%

Molecule: [Cl-].[Li+] [LiCl]
- Positive rate of recoverin ([1]; Wnt3a substitute at 2.5 mM): 64.1%
- Positive rate of rhodopsin ([1]; Wnt3a substitute at 2.5 mM): 56.2%
- Positive rate of Crx ([1]; Wnt3a substitute at 5 mM): 5.0%
- Positive rate of Ki67 ([1]; Wnt3a substitute at 5 mM): 33.3%
- Positive rate of peripherin2 ([1]; Wnt3a substitute at 5 mM): 1.5%
- Positive rate of recoverin ([1]; Wnt3a substitute at 5 mM): 78.9%
- Positive rate of rhodopsin ([1]; Wnt3a substitute at 5 mM): 68.5%

Molecule: O=C1NC(=O)C(c2ccccc2[N+](=O)[O-])=C1Nc1ccc(O)c(Cl)c1 [SB415286]
- Positive rate of Crx ([1]; Wnt3a substitute at 30 uM): 53.7%
- Positive rate of Ki67 ([1]; Wnt3a substitute at 30 uM): 13.3%
- Positive rate of Pax6 ([1]; Wnt3a substitute at 30 uM): 89.1%
- Positive rate of Rom ([1]; Wnt3a substitute at 30 uM): 59.5%
- Positive rate of b-opsin ([1]; Wnt3a substitute at 30 uM): 53.7%
- Positive rate of peripherin2 ([1]; Wnt3a substitute at 30 uM): 9.1%
- Positive rate of recoverin ([1]; Wnt3a substitute at 30 uM): 70.0%
- Positive rate of rhodopsin ([1]; Wnt3a substitute at 30 uM): 69.3%

Molecule: Norrin: recombinant Norrin (R&D Systems), activator of the Wnt pathway that binds to Frizzled4 receptor
- Positive rate of Crx ([1]; Wnt3a substitute at 50 ng/ml): 39.3%
- Positive rate of Ki67 ([1]; Wnt3a substitute at 50 ng/ml): 42.2%
- Positive rate of Rom ([1]; Wnt3a substitute at 50 ng/ml): 69.5%
- Positive rate of b-opsin ([1]; Wnt3a substitute at 50 ng/ml): 71.1%
- Positive rate of peripherin2 ([1]; Wnt3a substitute at 50 ng/ml): 24.9%
- Positive rate of recoverin ([1]; Wnt3a substitute at 50 ng/ml): 85.0%
- Positive rate of rhodopsin ([1]; Wnt3a substitute at 50 ng/ml): 82.9%

B1: Wnt3a: recombinant Wnt3a (R&D Systems), Wnt signaling pathway activator (protein, UniProt P56704 19-352, looked up)
Protein Wnt-3a: SYPIWWSLAVGPQYSSLGSQPILCASIPGLVPKQLRFCRNYVEIMPSVAEGIKIGIQECQHQFRGRRWNCTTVHDSLAIFGPVLDKATRESAFVHAIASAGVAFAVTRSCAEGTAAICGCSSRHQGSPGKGWKWGGCSEDIEFGGMVSREFADARENRPDARSAMNRHNNEAGRQAIASHMHLKCKCHGLSGSCEVKTCWWSQPDFRAIGDFLKDKYDSASEMVVEKHRESRGWVETLRPRYTYFKVPTERDLVYYEASPNFCEPNPETGSFGTRDRTCNVSSHGIDGCDLLCCGRGHNARAERRREKCRCVFHWCCYVSCQECTRVYDVHTCK
- Positive rate of the photoreceptor cell precursor marker Crx after Wnt3a addition [2]: 80.1%

B2: Wntll: recombinant Wnt11 (R&D Systems), Wnt signaling pathway activator used instead of Wnt3a (protein, UniProt O96014 25-354, looked up)
Protein Wnt-11: IKWLALSKTPSALALNQTQHCKQLEGLVSAQVQLCRSNLELMHTVVHAAREVMKACRRAFADMRWNCSSIELAPNYLLDLERGTRESAFVYALSAAAISHAIARACTSGDLPGCSCGPVPGEPPGPGNRWGGCADNLSYGLLMGAKFSDAPMKVKKTGSQANKLMRLHNSEVGRQALRASLEMKCKCHGVSGSCSIRTCWKGLQELQDVAADLKTRYLSATKVVHRPMGTRKHLVPKDLDIRPVKDSELVYLQSSPDFCMKNEKVGSHGTQDRQCNKTSNGSDSCDLMCCGRGYNPYTDRVVERCHCKYHWCCYVTCRRCERTVERYVCK
- Positive rate of Crx ([1]; Wnt3a substitute at 50 ng/ml): 65.9%
- Positive rate of Ki67 ([1]; Wnt3a substitute at 50 ng/ml): 40.1%
- Positive rate of Rom ([1]; Wnt3a substitute at 50 ng/ml): 50.2%
- Positive rate of b-opsin ([1]; Wnt3a substitute at 50 ng/ml): 30.6%
- Positive rate of peripherin2 ([1]; Wnt3a substitute at 50 ng/ml): 0.5%
- Positive rate of recoverin ([1]; Wnt3a substitute at 50 ng/ml): 65.3%
- Positive rate of rhodopsin ([1]; Wnt3a substitute at 50 ng/ml): 51.8%
- Positive rate of peripherin2 ([1]; Wnt3a substitute at 100 ng/ml): 10.7%
- Positive rate of recoverin ([1]; Wnt3a substitute at 100 ng/ml): 61.8%
- Positive rate of rhodopsin ([1]; Wnt3a substitute at 100 ng/ml): 59.1%

B3: Wntl: recombinant Wnt1 (PeproTech), Wnt signaling pathway activator used instead of Wnt3a (protein, UniProt P04628 28-370, looked up)
Proto-oncogene Wnt-1: ANSSGRWWGIVNVASSTNLLTDSKSLQLVLEPSLQLLSRKQRRLIRQNPGILHSVSGGLQSAVRECKWQFRNRRWNCPTAPGPHLFGKIVNRGCRETAFIFAITSAGVTHSVARSCSEGSIESCTCDYRRRGPGGPDWHWGGCSDNIDFGRLFGREFVDSGEKGRDLRFLMNLHNNEAGRTTVFSEMRQECKCHGMSGSCTVRTCWMRLPTLRAVGDVLRDRFDGASRVLYGNRGSNRASRAELLRLEPEDPAHKPPSPHDLVYFEKSPNFCTYSGRLGTAGTAGRACNSSSPALDGCELLCCGRGHRTRTQRVTERCNCTFHWCCHVSCRNCTHTRVLHECL
- Positive rate of Crx ([1]; Wnt3a substitute at 50 ng/ml): 60.3%
- Positive rate of Ki67 ([1]; Wnt3a substitute at 50 ng/ml): 23.8%
- Positive rate of Rom ([1]; Wnt3a substitute at 50 ng/ml): 55.9%
- Positive rate of b-opsin ([1]; Wnt3a substitute at 50 ng/ml): 61.6%
- Positive rate of peripherin2 ([1]; Wnt3a substitute at 50 ng/ml): 3.8%
- Positive rate of recoverin ([1]; Wnt3a substitute at 50 ng/ml): 70.9%
- Positive rate of rhodopsin ([1]; Wnt3a substitute at 50 ng/ml): 66.2%

B4: Wnt5A: recombinant Wnt5A (R&D Systems), Wnt signaling pathway activator used instead of Wnt3a (protein, UniProt P41221 62-380, looked up)
Protein Wnt-5a: IIGAQPLCSQLAGLSQGQKKLCHLYQDHMQYIGEGAKTGIKECQYQFRHRRWNCSTVDNTSVFGRVMQIGSRETAFTYAVSAAGVVNAMSRACREGELSTCGCSRAARPKDLPRDWLWGGCGDNIDYGYRFAKEFVDARERERIHAKGSYESARILMNLHNNEAGRRTVYNLADVACKCHGVSGSCSLKTCWLQLADFRKVGDALKEKYDSAAAMRLNSRGKLVQVNSRFNSPTTQDLVYIDPSPDYCVRNESTGSLGTQGRLCNKTSEGMDGCELMCCGRGYDQFKTVQTERCHCKFHWCCYVKCKKCTEIVDQFVCK
- Positive rate of Crx ([1]; Wnt3a substitute at 50 ng/ml): 67.3%
- Positive rate of Ki67 ([1]; Wnt3a substitute at 50 ng/ml): 41.3%
- Positive rate of Rom ([1]; Wnt3a substitute at 50 ng/ml): 58.8%
- Positive rate of b-opsin ([1]; Wnt3a substitute at 50 ng/ml): 55.0%
- Positive rate of peripherin2 ([1]; Wnt3a substitute at 50 ng/ml): 20.7%
- Positive rate of recoverin ([1]; Wnt3a substitute at 50 ng/ml): 61.0%
- Positive rate of rhodopsin ([1]; Wnt3a substitute at 50 ng/ml): 59.5%
- Positive rate of peripherin2 ([1]; Wnt3a substitute at 100 ng/ml): 14.2%
- Positive rate of recoverin ([1]; Wnt3a substitute at 100 ng/ml): 61.6%
- Positive rate of rhodopsin ([1]; Wnt3a substitute at 100 ng/ml): 56.1%
